Consider 2 compounds from patent publication US20240182444A1, “ANTI-VIRAL COMPOUNDS” (Aligos Therapeutics, Inc., priority 2022, published 2024).

Data set [1] relates to SARS-CoV-2. The settings on record: VeroE6, A549-ACE2 and/or HeLa-ACE2; cited from earlier work.
Data set [2] deals with SARS-CoV-2. The settings on record: A549-ACE2 expressing TMPRSS2; cited from earlier work.
The target of the next data set is 3Clpro (Severe acute respiratory syndrome coronavirus 2, UniProt P0DTD1). Conditions: cited from earlier work.
Another data set concerns the target T1, SARS-Cov-2 3CLpro (Severe acute respiratory syndrome coronavirus 2, UniProt P0DTD1).
T1 construct: 3CLpro was added using a Multidrop Combi
Description: SARS-Cov-2 3CLpro protease assay (SAMDI-MS). The format is biochemical. Conditions: 30 mins preincubation, duplex peptide substrates; read-out: SARS-Cov-2 (3CLpro IC50).

Data set [3] has as its system human beta-coronavirus OC43. Nature of the data set: OC43 coronavirus antiviral assay in HeLa cells. The format is cell-based. Conditions: Betacoronavirus 1, 144 h, OC43, 6 days at 33° C., cell-titer-glo. The method, then: (§1) The human beta-coronavirus OC43 was purchased from ATCC (Manassas, VA) and propagated using HCT-8 human colorectal epithelial cells (ATCC). HeLa human cervical epithelial cells (ATCC) were used as susceptible host cell lines and were cultured using EMEM media, supplemented with 10% fetal bovine serum (FBS), 1% (v/v) penicillin/streptomycin (P/S), 1% (v/v) HEPES and 1% (v/v) cellgro Glutagro™ supplement (all Corning, Manassas, VA) at 37° C. For the OC43 antiviral assay, 1.5×10^4 HeLa cells per well were plated in 100 μL complete media in white 96-well plates with clear bottoms at 37° C. for up to 24 h to facilitate attachment and allow cells to recover from seeding stresses. Next day, the cell culture medium was removed. Serially diluted compounds in 100 μL assay media (EMEM, 2% FBS, 1% P/S, 1% cellgro Glutagro™ supplement, 1% HEPES) were added to the cells and incubated for 4 h at 37° C. in a humidified 5% CO2 incubator. 100 μL of OC43 virus stock was diluted to a concentration known to produce optimal cytopathic effect, inducing 80-90% reduction in cell viability. 96-well plates were incubated for 6 days at 33° C.; each plate contains uninfected control wells as well as virus-infected wells that were not treated with compound. Cytotoxicity plates without the addition of OC43 virus were carried out in parallel. At the end of the incubation period, 100 μL cell culture supernatant was replaced with 100 μL cell-titer-glo reagent (Promega, Madison, WI) and incubated for at least 10 min at rt prior to measuring luminescence. Luminescence was measured on a Perkin Elmer (Waltham, MA) Envision plate reader. Antiviral % inhibition was calculated as follows: [(Compound treated cells infected sample)−(no compound infected control)]/[(Uninfected control)−(no compound infected control)]*100; Using GraphPad (San Diego, CA) prism software version 8.3.1, the antiviral dose-response plot was generated as a sigmoidal fit, log(inhibitor) vs response-variable slope (four parameters) model and the EC50 was calculated which is the predicted compound concentration corresponding to a 50% inhibition of the viral cytopathic effect.
(§2) Table 2 indicates related EC50 and CC50 values for the tested compounds ‘A’ indicates an EC50<100 nM, ‘B’ indicates an EC50 of ≥100 nM and <1000 nM, ‘C’ indicates an EC50≥1000 nM and <10000 nM and ‘D’ indicates an EC50≥10000 nM and <100000 nM. For CC50, the values are reported in micromolar (M), ‘A’ indicates a CC50≥10000 nM and ‘B’ indicates a CC50≥1 μM and <10 μM.

Data set [4] is described as follows: Cytotoxicity in HeLa cells without OC43 virus. Conditions: human, HeLa cells (uninfected), in parallel. The format is cell-based. The method, then:
as §1, §2

In data set [5] the test system is SARS-CoV-2 B.1.1.7 lineage. Nature of the data set: microbe, parasite or virus in culture. The settings on record: Severe acute respiratory syndrome coronavirus 2, 96 h; read-out: A549-dual_ACE2_TMPRSS2 (EC50). The format is cell-based.
A further data set deals with T2, human cathepsin L (Homo sapiens, UniProt P07711).
T2 construct: purchased R&D Systems
Nature of the data set: Cathepsin L assay. The format is biochemical. Conditions: 10 pM human cathepsin L, Z-FR-AMC 2 μM. On the procedure:
For the cathepsin L assay, 10 pM of human cathepsin L (R&D Systems; Minneapolis, MN) was preincubated for 30 mins with test compounds. Reactions were initiated by the addition of a peptide substrate Z-FR-AMC (final concentration 2 μM, Anaspec; Fremont, CA). Fluorescence was measured at 2-minute intervals for 30 mins using a 355/460 excitation/emission filter module on an Envision plate reader (Perkin Elmer; Waltham, MA). The IC50 values were calculated for each assay by fitting the curves using a four-parameter equation in GraphPad Prism.
Table 4 indicates related IC50 values for the tested compounds where ‘A’ indicates an IC50≥10000 nM, ‘B’ indicates an IC50 of ≥1000 nM and <10000 nM, ‘C’ indicates an IC50; ≥100 nM and <1000 nM, ‘D’ indicates an IC50<100 nM.

A short description of a further data set: in vitro. The settings on record: human.

T2 sequence (P07711 114-333): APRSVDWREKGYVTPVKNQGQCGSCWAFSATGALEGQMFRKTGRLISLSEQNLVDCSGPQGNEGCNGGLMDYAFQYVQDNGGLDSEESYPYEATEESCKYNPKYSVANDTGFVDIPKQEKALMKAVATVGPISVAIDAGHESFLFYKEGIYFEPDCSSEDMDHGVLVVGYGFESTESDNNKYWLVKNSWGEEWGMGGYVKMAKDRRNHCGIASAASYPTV

As for `CN1CCN(C(=O)N[C@@H](Cc2ccccc2)C(=O)N[C@H](/C=C/S(=O)(=O)c2ccccc2)CCc2ccccc2)CC1` [Compound K117777], the “inhibition of SARS-CoV-2” value in the data set on SARS-CoV-2 [1] is reported as “potent inhibition”. Besides, the “antiviral effect when TMPRSS2 was expressed” value with SARS-CoV-2 [2] was “abolished”. For the same compound, the “inhibitory effect on the 3Clpro” value on 3Clpro is “lacks an inhibitory effect”.
For orientation: IC50 means the concentration that inhibits the measured activity by half. For orientation: EC50 means the concentration at which the effect is half-maximal. For `CC(C)(C)[C@H](NC(=O)C(F)(F)F)C(=O)N1C[C@H]2[C@@H]([C@H]1C(=O)NC(C#N)c1cccnc1)[C@H]1C=C[C@@H]2C1` (stereo partly drawn) [Compound 3, (1R,2S,3S,6R,7S)—N-[cyano(pyridin-3-yl)methyl]-4-[(2S)-3,3-dimethyl-2-(2,2,2-trifluoroacetamido)butanoyl]-4-azatricyclo[5.2.1.0^{2,6}]dec-8-ene-3-carboxamide], the IC50 on SARS-Cov-2 3CLpro was below 0.02 µM; on human cathepsin L it was at least 10 µM. Also, the EC50 in data set [3] and in data set [5] was 0.1 to 1 µM throughout. The CC50 at 6 days in data set [4] is at least 10 µM. The compound also gave a CC50 in “in vitro” above 1 µM.
